Results published in patent US11241436B2, “Autophagy inducers for treatment of CNS conditions” (Northwestern University, priority 2017, dated 2022).

These compounds were tested on LC3 (assay: Promega Autophagy Assay System (HiBiT-tagged LC3 reporter, autophagy flux)). Conditions: LC3 reporter signal; decrease = increased autophagy.
Type: cell-based
Text: The Promega Augophagy Assay System uses LC3 to monitor the autophagy process. […] LgBiT is a […] recombinant protein derived from NanoLuc. When HiBiT associates with LgBiT, a strong luciferase activity is reconstituted. An increase in autophagy will accelerate the degradation of LC3 reporter which decreases the assay signal. In contrast, inhibition of autophagy causes the accumulation of LC3 which will increase the reporter levels and assay signal.

SMILES | AC50 [µM]
N=c1c2c(-c3ccccc3)cn(Cc3ccccc3)c2ncn1CCCN1CCN(c2ccccc2)CC1 | 23.1
COCCn1cnc2c(c(-c3ccccc3)cn2Cc2ccccc2)c1=N | 11.6
N=c1c2c(-c3ccccc3)c(-c3ccccc3)n(CCc3ccccc3)c2ncn1CCCO | 4.61
COc1ccc(Cn2c(-c3ccccc3)c(-c3ccccc3)c3c(=N)n(C4CCOCC4)cnc32)cc1 | 2.59
COc1ccc(Cn2c(-c3ccccc3)c(-c3ccccc3)c3c(=N)n(CC4CCOCC4)cnc32)cc1 | 9.2
N=c1c2c(-c3ccccc3)c(-c3ccccc3)n(Cc3ccccc3)c2ncn1CCN | 13
N=c1c2c(-c3ccccc3)c(-c3ccccc3)n(CC3CCCCC3)c2ncn1[C@H]1CC[C@H](O)CC1 | 16.4
CCOC(CCCn1cnc2c(c(-c3ccccc3)c(-c3ccccc3)n2Cc2ccccc2)c1=N)OCC | 20.6
N=c1c2c(-c3ccccc3)cn(Cc3ccccc3)c2ncn1C1CCC(O)CC1 (stereo not shown) | 16.4
COc1ccc(Cn2c(-c3ccccc3)c(-c3ccccc3)c3c(=N)n([C@H](C)[C@@H](O)c4ccccc4)cnc32)cc1 | 20.6
Cc1ccc(-c2c(C(=O)CF)n(CCCO)c3ncnc(N)c23)cc1 | 20.6
N=c1c2c(-c3ccccc3)c(-c3ccccc3)n(CC3CC3)c2ncn1CC1CCOCC1 | 20.6
N=c1c2c(-c3ccccc3)c(-c3ccccc3)n(Cc3ccccc3)c2ncn1CCO | 5.8
N=c1c2c3c(n(CCc4ccccc4)c2ncn1C1CCOCC1)CCCC3 | 7.31
N=c1c2c(-c3ccccc3)c(-c3ccccc3)n(CC3CCCCC3)c2ncn1CC1CCOCC1 | 14.6
N=c1c2c(-c3ccccc3)cn(Cc3ccc(Br)cc3)c2ncn1CCCN1CCN(c2ccccc2)CC1 | 16.4
N=c1c2c(-c3ccccc3)c(-c3ccccc3)n(Cc3ccccc3)c2ncn1CCNc1ccncc1 | 20.6
Cc1c(C)n(Cc2ccccc2)c2ncn(C3CCOCC3)c(=N)c12 | 23.1
CCOC(CCCn1cnc2c(c(-c3ccccc3)c(-c3ccccc3)n2CCc2ccccc2)c1=N)OCC | 13
N=c1c2c(-c3ccccc3)c(-c3ccccc3)n(CCc3ccccc3)c2ncn1[C@H](CO)Cc1ccccc1 | 20.6
N=c1c2c(-c3ccccc3)c(-c3ccccc3)n(Cc3ccccc3)c2ncn1C[C@@H]1CCCC[C@H]1O | 13
N=c1c2c(-c3ccccc3)cn(Cc3ccc(Br)cc3)c2ncn1CCCCO | 25.9

SMILES | AC50 [µM]
CN(C)CCCn1cnc2c(c(-c3ccccc3)c(-c3ccccc3)n2CCc2ccccc2)c1=N | 32.6
N=c1c2c(-c3ccccc3)c(-c3ccccc3)n(CCc3ccccc3)c2ncn1CC1CCOC1 (stereo not shown) | 9.2
N=c1c2c(-c3ccc4c(c3)OCO4)c(-c3ccc4c(c3)OCO4)n(Cc3ccccc3)c2ncn1C1CCOCC1 | 18.4
N=c1c2c(-c3ccccc3)c(-c3ccccc3)n(CCc3ccccc3)c2ncn1CCCCO | 10.3
CCOC(CCCn1cnc2c(c(-c3ccccc3)c(-c3ccccc3)n2Cc2ccc(OC)cc2)c1=N)OCC | 20.6
COc1ccc(-c2c(-c3ccc(OC)cc3)n(Cc3ccccc3)c3ncn(C4CCOCC4)c(=N)c23)cc1 | 23.1
CC[Si](CC)(CC)OCCCn1cnc2c(c(-c3ccccc3)cn2Cc2ccc(Br)cc2)c1=N | 13
N=c1c2c(-c3ccccc3)c(-c3ccccc3)n(Cc3ccccc3)c2ncn1[C@@H]1CCCC[C@H]1O | 3.26
N=c1c2c(-c3ccccc3)c(-c3ccccc3)n(CC3CCCCC3)c2ncn1C1CCOCC1 | 10.3
N=c1c2c(-c3ccccc3)c(-c3ccccc3)n(CC3CCCCC3)c2ncn1C[C@H]1CCCC[C@@H]1O | 0.366
COc1ccc(Cn2c(-c3ccccc3)c(-c3ccccc3)c3c(=N)n(CCCCO)cnc32)cc1 | 10.3
N=c1c2c(-c3ccccc3)c(-c3ccccc3)n(Cc3ccc(OC(F)(F)F)cc3)c2ncn1C1CCOCC1 | 9.2
COc1ccc(Cn2c(-c3ccccc3)c(-c3ccccc3)c3c(=N)n(N4CCOCC4)cnc32)cc1 | 20.6
N=c1c2c(-c3ccccc3)c(-c3ccccc3)n(CCc3ccccc3)c2ncn1CC1CCOCC1 | 10.3
N=c1c2c(-c3ccccc3)c(-c3ccccc3)n(Cc3ccccc3)c2ncn1CC1CCOCC1 | 10.3
COC(Cn1cnc2c(c(-c3ccccc3)c(-c3ccccc3)n2CCc2ccccc2)c1=N)OC | 23.1
COc1ccc(-c2c(-c3ccc(OC)cc3)n(Cc3ccccc3)c3ncn(CCCO)c(=N)c23)cc1 | 20.6
COC(=O)c1cccc(Cn2cnc3c(c(-c4ccccc4)c(-c4ccccc4)n3CCc3ccccc3)c2=N)c1 | 13
N=c1c2c(-c3ccccc3)c(-c3ccccc3)n(CCc3ccccc3)c2ncn1[C@@H]1CCCC[C@H]1O | 7.31
N=c1c2c(-c3ccccc3)c(-c3ccccc3)n(CCc3ccccc3)c2ncn1CCCCCO | 13
N=c1c2c(-c3ccccc3)c(-c3ccccc3)n(Cc3ccccc3)c2ncn1Cc1ccc2c(c1)OCO2 | 16.4
N=c1c2c(-c3ccccc3)c(-c3ccccc3)n(Cc3ccc(OC(F)(F)F)cc3)c2ncn1[C@H]1CC[C@H](O)CC1 | 2.59

SMILES | AC50 [µM]
N=c1c2c(-c3ccccc3)c(-c3ccccc3)n(Cc3ccccc3)c2ncn1CC1COC1 | 8.2
N=c1c2c(-c3ccccc3)c(-c3ccccc3)n(Cc3ccccc3)c2ncn1C1CCC(O)CC1 (stereo not shown) | 2.91
N=c1c2c(-c3ccccc3)c(-c3ccccc3)n(CCc3ccccc3)c2ncn1[C@H]1CC[C@H](O)CC1 | 1.16
N=c1c2c(-c3ccccc3)c(-c3ccccc3)n(CCc3ccccc3)c2ncn1CCC1CCC(O)CC1 (stereo not shown) | 3.66
N=c1c2c(-c3ccccc3)c(-c3ccccc3)n(Cc3ccccc3)c2ncn1CCCCCO | 10.3
COC(Cn1cnc2c(c(-c3ccccc3)c(-c3ccccc3)n2Cc2ccccc2)c1=N)OC | 0.231
N=c1c2c(-c3ccccc3)cn(Cc3ccccc3)c2ncn1[C@H](CO)Cc1ccccc1 | 25.9
N=c1c2c(-c3ccccc3)c(-c3ccccc3)n(Cc3ccc(OC(F)(F)F)cc3)c2ncn1CC1CCOCC1 | 9.2
N=c1c2c(-c3ccccc3)c(-c3ccccc3)n(CCc3ccccc3)c2ncn1CC1CCCO1 (stereo not shown) | 23.1
COc1ccc(Cn2c(-c3ccccc3)c(-c3ccccc3)c3c(=N)n(CC4CCCO4)cnc32)cc1 (stereo not shown) | 20.6
Cc1ccc(-c2c(C(=O)CCl)n(CCCO)c3ncnc(N)c23)cc1 | 23.1
COc1ccc(-c2c(-c3ccc(OC)cc3)n(Cc3ccccc3)c3ncn([C@@H]4CCCC[C@H]4CO)c(=N)c23)cc1 | 20.6
N=c1c2c(-c3ccccc3)cn(Cc3ccccc3)c2ncn1C(CO)(CO)CO | 29.1
COc1ccc(Cn2c(-c3ccccc3)c(-c3ccccc3)c3c(=N)n(CC(OC)OC)cnc32)cc1 | 16.4
N=c1c2c(-c3ccccc3)c(-c3ccccc3)n(CCc3ccccc3)c2ncn1CCO | 4.61
COCCn1cnc2c(c(-c3ccccc3)c(-c3ccccc3)n2CCc2ccccc2)c1=N | 20.6
COc1ccc(Cn2c(-c3ccccc3)c(-c3ccccc3)c3c(=N)n(CCCO)cnc32)cc1 | 5.17
COc1ccc(Cn2c(-c3ccccc3)c(-c3ccccc3)c3c(=N)n(CCO)cnc32)cc1 | 2.59
N=c1c2c(-c3ccccc3)cn(Cc3ccccc3)c2ncn1Cc1ccco1 | 16.4
COc1ccc(-c2c(-c3ccc(OC)cc3)n(Cc3ccccc3)c3ncn(CC4CCOCC4)c(=N)c23)cc1 | 20.6
N=c1c2c(-c3ccccc3)c(-c3ccccc3)n(CC3CC3)c2ncn1CCCO | 10.3
COc1ccc(CCn2cnc3c(c(-c4ccccc4)cn3Cc3ccccc3)c2=N)cc1OC | 16.4

SMILES | AC50 [µM]
COc1ccc(CCn2cnc3c(c(-c4ccccc4)c(-c4ccccc4)n3Cc3ccccc3)c2=N)cc1OC | 23.1
COC1CCC(n2cnc3c(c(-c4ccccc4)c(-c4ccccc4)n3Cc3ccc(OC(F)(F)F)cc3)c2=N)CC1 (stereo not shown) | 2.91
CN(C)CCn1cnc2c(c(-c3ccccc3)c(-c3ccccc3)n2CCc2ccccc2)c1=N | 5.17
N=c1c2c(-c3ccccc3)c(-c3ccccc3)n(Cc3ccccc3)c2ncn1CC1CCOC1 (stereo not shown) | 20.6
N=c1c2c(-c3ccccc3)c(-c3ccccc3)n(CCc3ccccc3)c2ncn1C[C@@H]1CCCC[C@H]1O | 18.4
N=c1c2c(-c3ccccc3)cn(Cc3ccccc3)c2ncn1[C@@H]1CCCC[C@H]1N | 14.6
COCCn1cnc2c(c(-c3ccccc3)c(-c3ccccc3)n2Cc2ccc(OC)cc2)c1=N | 23.1
N=c1c2c(-c3ccccc3)c(-c3ccccc3)n(Cc3ccccc3)c2ncn1CCCCO | 11.6
N=c1c2c(-c3ccccc3)c(-c3ccccc3)n(Cc3ccccc3)c2ncn1C1CCOCC1 | 2.31
CO[C@H]1CC[C@H](n2cnc3c(c(-c4ccccc4)c(-c4ccccc4)n3CCc3ccccc3)c2=N)CC1 | 3.66
N=c1c2c(-c3ccccc3)c(-c3ccccc3)n(CC3CC3)c2ncn1C1CCOCC1 | 7.31
N=c1c2c(-c3ccccc3)c(-c3ccccc3)n(Cc3ccccc3)c2ncn1CCCN1CCN(c2ccccc2)CC1 | 29.1
N=c1c2c(-c3ccccc3)c(-c3ccccc3)n(Cc3ccccc3)c2ncn1[C@H]1CC[C@H](CO)CC1 | 9.2
N=c1c2c3c(n(CCc4ccccc4)c2ncn1CCCO)CCCC3 | 18.4
N=c1c2c(-c3ccccc3)c(-c3ccccc3)n(Cc3ccccc3)c2ncn1[C@H](CO)Cc1ccccc1 | 23.1
C[C@H]([C@@H](O)c1ccccc1)n1cnc2c(c(-c3ccccc3)c(-c3ccccc3)n2Cc2ccccc2)c1=N | 29.1
N=c1c2c(-c3ccccc3)c(-c3ccccc3)n(Cc3ccccc3)c2ncn1C1CCN(Cc2ccccc2)CC1 | 29.1
COc1ccc(Cn2c(-c3ccccc3)c(-c3ccccc3)c3c(=N)n([C@H]4CC[C@H](O)CC4)cnc32)cc1 | 1.64
CO[C@H]1CC[C@H](n2cnc3c(c(-c4ccccc4)c(-c4ccccc4)n3Cc3ccccc3)c2=N)CC1 | 2.91
N=c1c2c(-c3ccccc3)c(-c3ccccc3)n(Cc3ccccc3)c2ncn1CC1CCCO1 (stereo not shown) | 14.6
COc1ccc(Cn2c(-c3ccccc3)c(-c3ccccc3)c3c(=N)n(CCCCCO)cnc32)cc1 | 5.17
N=c1c2c(-c3ccccc3)c(-c3ccccc3)n(Cc3ccc(OC(F)(F)F)cc3)c2ncn1CCCO | 9.2
